Data on 18 molecules can be found in US8110596B2, “Triprenyl phenol compound, process for production of triprenyl phenol compound, and thrombolysis enhancer” (Tokyo University of Agriculture and Technology TLO Co., Ltd., priority 2006, dated 2012).

The target of the assay is T1, Glu-plg (Homo sapiens, UniProt P00747).
T1 construct: 0.1 mM VLK-pNA, 50 nM Glu-plg and 50 U/ml u-PA
In words: Plasminogen (plg) activation enhancing activity by urokinase catalysis, VLK-pNA chromogenic assay (Example 30, Table 24). The class given is biochemical. Conditions: for Maximum enhancing activity: Concentration by mole / Maximum enhancing activity: Concentration by weight: concentration at which enhancement of plasminogen activation reaches the maximum; for 10-Fold enhancing activity: Concentration by mole / 10-Fold enhancing activity: Concentration by weight: concentration giving 10-fold enhancement of plasminogen activation vs control without SMTP compound (=1); for 10-Fold enhancing activity: Concentration by mole / 10-Fold enhancing activity: Concentration by weight / plasminogen activation enhancing activity compared to orniplabin: 0.1 mM VLK-pNA, 50 nM Glu-plg, 50 U/ml u-PA, 37° C.; for Maximum enhancing activity: Multiplication factor: fold enhancement of plasminogen activation at maximum, control without SMTP compound = 1. The procedure: For the various triprenyl phenol compounds obtained as described above, the performance was evaluated with regard to the thrombolytic activity as the activity of promoting the plasminogen (plg) activation by urokinase catalysis.
The property of plasmin of cutting the peptide bond of a synthetic chromogenic substrate VLK-pNA (Val-Leu-Lys-p-nitroanilide) to generate p-nitroaniline (pNA), was used to measure the yellow coloration of pNA which is absorbed at 405 nm, and thereby the plasminogen activation enhancing activity of a sample is measured. An MTP-500 type microplate reader (Corona Electric Co., Ltd.) was employed as the measuring device, and measurement was performed with a 96-well round bottom microplate.
The measurement was performed under the conditions of kinetic measurement at 37° C. with dual wavelength of 405 nm (activity) to 595 nm (background), for 60 times in every minute.
The purified samples were each made into a DMSO solution or an aqueous solution of sodium salt. This solution was diluted with TBS/T (50 mM Tris-HCl, 100 mM NaCl and 0.01% Tween80, pH 7.4) to provide a sample for measurement.
Furthermore, as a blank, a reaction was performed using a reaction liquid not containing u-PA, and the value obtained therefrom was subtracted from the values obtained from the reactions described above. The absorbance was plotted against the square of time, and the slope was defined as the initial rate of reaction. A reaction solution not added with any triprenyl phenol compound was taken as the control and was compared with the samples, to determine the degree of activity of the respective compounds.
The term “concentration of 10-fold enhancing activity” indicates the concentration at which 10-fold enhancing activity is obtained in the case where the value obtained by using a reaction solution not containing any SMTP compound (control) is taken as 1. The term “maximum enhancing activity” indicates the concentration at which the enhancement of plasminogen activation by an SMTP compound reaches the maximum.

T1 sequence (P00747 20-810 limits assumed): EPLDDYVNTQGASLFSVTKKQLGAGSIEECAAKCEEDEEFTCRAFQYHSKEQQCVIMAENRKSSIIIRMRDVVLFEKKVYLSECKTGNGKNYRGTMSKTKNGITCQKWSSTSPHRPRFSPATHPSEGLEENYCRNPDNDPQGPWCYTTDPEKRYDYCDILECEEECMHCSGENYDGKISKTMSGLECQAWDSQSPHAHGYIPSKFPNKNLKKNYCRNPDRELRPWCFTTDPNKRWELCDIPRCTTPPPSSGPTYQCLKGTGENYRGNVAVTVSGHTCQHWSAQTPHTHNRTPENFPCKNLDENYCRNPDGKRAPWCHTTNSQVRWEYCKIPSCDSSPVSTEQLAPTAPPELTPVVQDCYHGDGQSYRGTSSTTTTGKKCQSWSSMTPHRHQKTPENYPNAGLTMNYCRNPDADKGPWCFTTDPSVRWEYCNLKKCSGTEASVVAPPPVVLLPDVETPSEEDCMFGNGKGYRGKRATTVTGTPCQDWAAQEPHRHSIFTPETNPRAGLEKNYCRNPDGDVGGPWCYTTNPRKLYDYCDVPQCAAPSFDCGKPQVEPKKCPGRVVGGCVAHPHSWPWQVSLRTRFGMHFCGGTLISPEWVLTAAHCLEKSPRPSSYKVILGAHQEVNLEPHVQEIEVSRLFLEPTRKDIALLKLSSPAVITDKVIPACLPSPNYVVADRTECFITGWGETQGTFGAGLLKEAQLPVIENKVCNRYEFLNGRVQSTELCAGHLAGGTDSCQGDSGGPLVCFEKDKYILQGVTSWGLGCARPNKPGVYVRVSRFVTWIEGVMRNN

In the case of `CC(C)=CCC/C(C)=C/CC[C@]1(C)Oc2c(c(O)cc3c2CN([C@H](C(=O)O)c2cccc(O)c2)C3=O)C[C@@H]1O` (racemic) [Compound I-25], the “Maximum enhancing activity: Concentration by mole” value stood at 402 µM, the “Maximum enhancing activity: Concentration by weight” value amounted to 215 µg/mL, the “10-Fold enhancing activity: Concentration by mole” value is on record as 230 μM and the “10-Fold enhancing activity: Concentration by weight” value is listed as 123 μg/ml. Besides, the “Maximum enhancing activity: Multiplication factor” value was 29.
Turning to `CC(C)=CCC/C(C)=C/CC[C@]1(C)Oc2c(c(O)cc3c2CN(c2ccc(C(=O)O)cc2)C3=O)C[C@@H]1O` [Compound I-2], the “plasminogen activation enhancing activity compared to orniplabin” value is “equivalent or higher”, the “Maximum enhancing activity: Concentration by mole” value was determined as 160 µM, the “Maximum enhancing activity: Concentration by weight” value is 81 µg/mL and the “10-Fold enhancing activity: Concentration by mole” value is 83 μM. Further, the “10-Fold enhancing activity: Concentration by weight” value was found to be 42 μg/ml and the “Maximum enhancing activity: Multiplication factor” value is 126.
In the case of `CC(C)=CCC/C(C)=C/CC[C@]1(C)Oc2c(c(O)cc3c2CN(c2cccc(C(=O)O)c2)C3=O)C[C@@H]1O` [Compound I-3], the “Maximum enhancing activity: Concentration by mole” value turned out to be 300 µM, the “Maximum enhancing activity: Concentration by weight” value turned out to be 151 µg/mL, the “10-Fold enhancing activity: Concentration by mole” value was 202 μM and the “10-Fold enhancing activity: Concentration by weight” value is reported as 102 μg/ml. The “Maximum enhancing activity: Multiplication factor” value amounted to 52.
On the same counts, the results for `CC(C)=CCC/C(C)=C/CC[C@]1(C)Oc2c(c(O)cc3c2CN(c2ccccc2C(=O)O)C3=O)C[C@@H]1O` [Compound I-4] are 200 µM, 101 µg/mL, 133 μM, 67 μg/ml and 51.
`CC(C)=CCC/C(C)=C/CC[C@]1(C)Oc2c(c(O)cc3c2CN(c2ccc(C(=O)O)c(O)c2)C3=O)C[C@@H]1O` [Compound I-5]: the “plasminogen activation enhancing activity compared to orniplabin” value is given as “equivalent or higher”, the “Maximum enhancing activity: Concentration by mole” value was found to be 200 µM, the “Maximum enhancing activity: Concentration by weight” value was determined as 101 µg/mL and the “10-Fold enhancing activity: Concentration by mole” value is 100 μM. The “10-Fold enhancing activity: Concentration by weight” value was 52 μg/ml and the “Maximum enhancing activity: Multiplication factor” value was found to be 158.
Turning to `CC(C)=CCC/C(C)=C/CC[C@]1(C)Oc2c(c(O)cc3c2CN(c2ccc(C(=O)O)cc2O)C3=O)C[C@@H]1O` [Compound I-6], the “Maximum enhancing activity: Concentration by mole” value is 290 µM, the “Maximum enhancing activity: Concentration by weight” value was found to be 151 µg/mL, the “10-Fold enhancing activity: Concentration by mole” value is 131 μM and the “10-Fold enhancing activity: Concentration by weight” value was found to be 68 μg/ml. In addition, the “Maximum enhancing activity: Multiplication factor” value worked out at 65.
The corresponding values for `CC(C)=CCC/C(C)=C/CC[C@]1(C)Oc2c(c(O)cc3c2CN(c2c(O)cccc2C(=O)O)C3=O)C[C@@H]1O` [Compound I-7] are 290 µM, 151 µg/mL, 173 μM, 90 μg/ml and 37.
On to `CC(C)=CCC/C(C)=C/CC[C@]1(C)Oc2c(c(O)cc3c2CN(c2cccc(C(=O)O)c2O)C3=O)C[C@@H]1O` [Compound I-8], for which the “plasminogen activation enhancing activity compared to orniplabin” value is listed as “equivalent or higher”, the “Maximum enhancing activity: Concentration by mole” value worked out at 100 µM, the “Maximum enhancing activity: Concentration by weight” value is 52 µg/mL and the “10-Fold enhancing activity: Concentration by mole” value is 71 μM. Moreover, the “10-Fold enhancing activity: Concentration by weight” value stood at 37 μg/ml and the “Maximum enhancing activity: Multiplication factor” value came to 91.
Regarding `CC(C)=CCC/C(C)=C/CC[C@]1(C)Oc2c(c(O)cc3c2CN(c2ccc(O)c(C(=O)O)c2)C3=O)C[C@@H]1O` [Compound I-9], the “Maximum enhancing activity: Concentration by mole” value stood at 120 µM, the “Maximum enhancing activity: Concentration by weight” value is 63 µg/mL and the “Maximum enhancing activity: Multiplication factor” value is listed as 8.
For `CC(C)=CCC/C(C)=C/CC[C@]1(C)Oc2c(c(O)cc3c2CN(c2cc(C(=O)O)ccc2O)C3=O)C[C@@H]1O` [Compound I-10], the “Maximum enhancing activity: Concentration by mole” value is 290 µM, the “Maximum enhancing activity: Concentration by weight” value turned out to be 151 µg/mL, the “10-Fold enhancing activity: Concentration by mole” value is given as 188 μM and the “10-Fold enhancing activity: Concentration by weight” value came to 98 μg/ml. The “Maximum enhancing activity: Multiplication factor” value turned out to be 43.
As to `CC(C)=CCC/C(C)=C/CC[C@]1(C)Oc2c(c(O)cc3c2CN(c2ccc(O)cc2C(=O)O)C3=O)C[C@@H]1O` [Compound I-11], the “Maximum enhancing activity: Concentration by mole” value amounted to 200 µM, the “Maximum enhancing activity: Concentration by weight” value came out at 101 µg/mL, the “10-Fold enhancing activity: Concentration by mole” value is reported as 127 μM and the “10-Fold enhancing activity: Concentration by weight” value is on record as 66 μg/ml. Further, the “Maximum enhancing activity: Multiplication factor” value is given as 65.
Regarding `CC(C)=CCC/C(C)=C/CC[C@]1(C)Oc2c(c(O)cc3c2CN(c2ccc(S(=O)(=O)O)cc2)C3=O)C[C@@H]1O` [Compound I-19], the “Maximum enhancing activity: Concentration by mole” value amounted to 300 µM, the “Maximum enhancing activity: Concentration by weight” value came out at 163 µg/mL, the “10-Fold enhancing activity: Concentration by mole” value is listed as 137 μM and the “10-Fold enhancing activity: Concentration by weight” value is on record as 74 μg/ml. Also, the “Maximum enhancing activity: Multiplication factor” value came to 60.
Consider `CC(C)=CCC/C(C)=C/CC[C@]1(C)Oc2c(c(O)cc3c2CN([C@H](C(=O)O)c2ccccc2)C3=O)C[C@@H]1O` [Compound I-20], for which the “plasminogen activation enhancing activity compared to orniplabin” value is recorded as “equivalent or higher”, the “Maximum enhancing activity: Concentration by mole” value stood at 289 µM, the “Maximum enhancing activity: Concentration by weight” value is 150 µg/mL and the “10-Fold enhancing activity: Concentration by mole” value was found to be 89 μM. Besides, the “10-Fold enhancing activity: Concentration by weight” value was found to be 46 μg/ml and the “Maximum enhancing activity: Multiplication factor” value amounted to 402.
`CC(C)=CCC/C(C)=C/CC[C@]1(C)Oc2c(c(O)cc3c2CN([C@@H](C(=O)O)c2ccccc2)C3=O)C[C@@H]1O` [Compound I-21]: the “Maximum enhancing activity: Concentration by mole” value worked out at 289 µM, the “Maximum enhancing activity: Concentration by weight” value turned out to be 150 µg/mL, the “10-Fold enhancing activity: Concentration by mole” value came out at 104 μM and the “10-Fold enhancing activity: Concentration by weight” value was 54 μg/ml. The “Maximum enhancing activity: Multiplication factor” value came out at 44.
With `CC(C)=CCC/C(C)=C/CC[C@]1(C)Oc2c(c(O)cc3c2CN([C@H](C(=O)O)c2ccc(O)cc2)C3=O)C[C@@H]1O` [Compound I-22], the “Maximum enhancing activity: Concentration by mole” value was found to be 299 µM, the “Maximum enhancing activity: Concentration by weight” value came to 160 µg/mL, the “10-Fold enhancing activity: Concentration by mole” value came to 211 μM and the “10-Fold enhancing activity: Concentration by weight” value was 113 μg/ml. The “Maximum enhancing activity: Multiplication factor” value is on record as 18.
Consider `CC(C)=CCC/C(C)=C/CC[C@]1(C)Oc2c(c(O)cc3c2CN([C@@H](C(=O)O)c2ccc(O)cc2)C3=O)C[C@@H]1O` [Compound I-23], for which the “Maximum enhancing activity: Concentration by mole” value was 402 µM, the “Maximum enhancing activity: Concentration by weight” value came to 215 µg/mL, the “10-Fold enhancing activity: Concentration by mole” value was 331 μM and the “10-Fold enhancing activity: Concentration by weight” value was determined as 177 μg/ml. For the same molecule, the “Maximum enhancing activity: Multiplication factor” value is listed as 22.
As for `CC(C)=CCC/C(C)=C/CC[C@]1(C)Oc2c(c(O)cc3c2CN([C@@H](Cc2ccc(O)cc2)C(=O)O)C3=O)C[C@H]1O` [Compound I-26], the “plasminogen activation enhancing activity compared to orniplabin” value is reported as “equivalent or higher”, the “Maximum enhancing activity: Concentration by mole” value was 200 µM, the “Maximum enhancing activity: Concentration by weight” value was 110 µg/mL and the “10-Fold enhancing activity: Concentration by mole” value was found to be 77 μM. Also, the “10-Fold enhancing activity: Concentration by weight” value was determined as 42 μg/ml and the “Maximum enhancing activity: Multiplication factor” value came to 76.
`CC(C)=CCC/C(C)=C/CC[C@]1(C)Oc2c(c(O)cc3c2CN(CCC[C@@H](C(=O)O)N2Cc4c(cc(O)c5c4O[C@@](C)(CC/C=C(\C)CCC=C(C)C)[C@@H](O)C5)C2=O)C3=O)C[C@@H]1O` [Orniplabin, reference compound]: the “Maximum enhancing activity: Concentration by mole” value is 90 µM, the “Maximum enhancing activity: Concentration by weight” value came out at 78 µg/mL, the “10-Fold enhancing activity: Concentration by mole” value came out at 65 μM and the “10-Fold enhancing activity: Concentration by weight” value amounted to 56 μg/ml. For the same molecule, the “Maximum enhancing activity: Multiplication factor” value turned out to be 100.
